We go through one molecule from paper PMC8579695, “The Stringent Response Inhibits 70S Ribosome Formation in Staphylococcus aureus by Impeding GTPase-Ribosome Interactions” (mBio, 2021).

For the assay, the system named is RA-GTPases RsgA, RbgA, Era, and HflX. Description: DRaCALA binding and competition assays across the four RA-GTPases. Details: species or system Staphylococcus aureus. The following applies: 100 μM cold competitor. From the text:
FIG 1 Nucleotide binding characteristics of RA-GTPases. (A) Schematic representation of the domain structure of Era, RsgA, RbgA, and HflX from S. aureus. The conserved GTPase domain (G domain) is colored in green, and accessory domains are shown. (B) Determination of binding affinities and Kd values for ^32P-labeled GTP, GDP, ppGpp, and pppGpp with purified recombinant 6×His-tagged RbgA using DRaCALA, as previously described ([36]). Each point is the mean average of at least three technical replicates, and error bars indicate standard deviations. (C) Binding assay (DRaCALA) of recombinant RbgA binding to ^32P-labeled GTP, ppGpp, and pppGpp in the presence of an excess of cold competitor (GTP, GDP, ppGpp, pppGpp, or ATP). All experiments were carried out in triplicate, with error bars representing standard deviations. […]
Supplementary file : FIG S2 Examination of the binding of GDP, ppGpp, GTP, and pppGpp to RA-GTPases by DRaCALA. […] Kd values were determined from the binding curves as previously described ([36]). […]
Structural data places (p)ppGpp within the GTP-binding site of the RA-GTPase RbgA ([6]), indicating a competitive mode of inhibition. […] Based on our measured affinities (Table 1), we speculate that both GDP and ppGpp will outcompete other nucleotides for occupancy of the binding site. […]

For `Nc1nc2c(ncn2[C@@H]2O[C@H](COP(=O)(O)OP(=O)(O)O)[C@@H](OP(=O)(O)OP(=O)(O)O)[C@H]2O)c(=O)[nH]1` [ppGpp], the “competition of cold unlabeled nucleotide with 32P-labeled GTP, ppGpp, pppGpp” value was “competing more effectively”.
